Data reported in patent US20080286373A1, “Ziprasidone formulations” (priority 2007, published 2008).
Counter-ions that a name gives are not always drawn.

What was measured:
[1] = Within 45 minutes; pH 7.5, 900 ml aqueous monobasic sodium phosphate with 2w/v % Na dodecyl sulfate, USP 2 paddles 75 rpm; formulation of U.S. Pat. No. 6,150,366, mean particle size <85 microns; cited from earlier work
[2] = Solubility of ziprasidone hydrochloride monohydrate in various solvents (Table 1); assay type: physicochemical
[3] = Solubility of ziprasidone hydrochloride monohydrate in excipients (Table 2); assay type: physicochemical
Description: Solubility in various excipients that are frequently used to improve solubility was also tested and the results thereof are in Table 2 below.

Ziprasidone
ziprasidone dissolved [1]: 70%

O=C1Cc2cc(CCN3CCN(c4nsc5ccccc45)CC3)c(Cl)cc2N1 [Ziprasidone HCl monohydrate, ziprasidone hydrochloride monohydrate]
solubility ([2]; solvent ACN): <1%
solubility ([2]; solvent Acetone): <1%
solubility ([2]; solvent Acetone/water): <1%
solubility ([2]; solvent DCM): <1%
solubility ([2]; solvent DMF/DMA/DMSO): 1.5%
solubility ([2]; solvent DMF/water 80/20): <1%
solubility ([2]; solvent Ethanol): <1%
solubility ([2]; solvent Isopropanol): <1%
solubility ([2]; solvent Methanol): 1.5%
solubility ([2]; solvent Methanol/acetic acid 90/10): <1%
solubility ([2]; solvent Methanol/water 60/40): <1%
solubility ([2]; solvent Methanol/water 80/20): 1.5%
solubility ([2]; solvent THF): <1%
solubility ([3]; 0.1 N HCl solution, simulated gastric fluid): 500 µg/mL
solubility ([3]; 5% caprolactam in water, aqueous with cosolvent or surfactant or cyclodextrin, 5% caprolactam in solution in water): 300 µg/mL
solubility ([3]; 20% Lactic acid in PEG 400, organic solvent or mixture): 1300 µg/mL
solubility ([3]; 20% Lutrol in TPGS, organic solvent or mixture): 1000 µg/mL
solubility ([3]; Benzyl alcohol, organic solvent or mixture): 2900 µg/mL
solubility ([3]; Benzyl benzoate, organic solvent or mixture): 300 µg/mL
solubility ([3]; Ethanol, organic solvent or mixture): 400 µg/mL
solubility ([3]; Gelucire 44/14, oil or lipid): 1000 µg/mL
solubility ([3]; Gelucire 50/13, oil or lipid): 1000 µg/mL
solubility ([3]; Glacial acetic acid, organic solvent or mixture): 2800 µg/mL
solubility ([3]; Glycerol, organic solvent or mixture): 1250 µg/mL
solubility ([3]; Labrofac (Capric triglyceride PEG-4 ester), oil or lipid): 900 µg/mL
solubility ([3]; Lactic acid (85% strength), organic solvent or mixture): 10000 µg/mL
solubility ([3]; Maisine 35-1 (glycerol monolinoleate), oil or lipid): 1000 µg/mL
solubility ([3]; N-methyl 2-pyrrolidone, organic solvent or mixture): 10000 µg/mL
solubility ([3]; PEG 400, organic solvent or mixture): 2500 µg/mL
solubility ([3]; PEG 6000, organic solvent or mixture): 2500 µg/mL
solubility ([3]; Peceol (glycerol monooleate 40), oil or lipid): 1000 µg/mL
solubility ([3]; Propylene glycol, organic solvent or mixture): 2000 µg/mL
solubility ([3]; Span 80, organic solvent or mixture): 500 µg/mL
solubility ([3]; Tween 20, organic solvent or mixture): 3000 µg/mL
solubility ([3]; Tween 80, organic solvent or mixture): 2100 µg/mL
solubility ([3]; Water): 30 µg/mL
solubility ([3]; aqueous buffer, Phosphate buffer pH 6.8 (without SLS)): < 10 µg/mL
